The record followed here is the supplement of paper PMC10307832.

Common to all, as to experiment: relative viability (nuclei count vs DMSO), 5 days (fraction); higher = more cells survive
Compound in assay [1]: Cc1ccc(C(=O)N(CCCN)[C@@H](c2nc3cc(Cl)ccc3c(=O)n2Cc2ccccc2)C(C)C)cc1 [Ispinesib] + CC(=O)c1c(C)c2cnc(Nc3ccc(N4CCNCC4)cn3)nc2n(C2CCCC2)c1=O [Palbociclib] (partner 0.5 µM)
The procedure, abridged: (§1)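 Nuclei were stained with Hoechst during a one-step fixation (final 0.05% Triton X-100, 1% formaldehyde, 1 ug/ml Hoechst) carried out 5 days after dosing, then counted on 4× images. The cells, lung cancer lines in 1536-well plates, had been dosed by pin tool the day after seeding with one drug alone or a fixed anchor-drug dose plus five library-drug doses (not always all listed) in √10 steps. Relative viability is the nuclei count in treated wells divided by that in vehicle wells, and each value is the median of duplicate plates.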

Compound in assay [2]: Cc1ccc(C(=O)N(CCCN)[C@@H](c2nc3cc(Cl)ccc3c(=O)n2Cc2ccccc2)C(C)C)cc1 [Ispinesib] + O=C(CCCCCCC(=O)Nc1ccccc1)NO [Vorinostat] (partner 1 µM)
The method in brief:
as §1

Compound in assay [3]: Cc1ccc(C(=O)N(CCCN)[C@@H](c2nc3cc(Cl)ccc3c(=O)n2Cc2ccccc2)C(C)C)cc1 [Ispinesib] + NC(=O)Nc1cc(-c2cccc(F)c2)sc1C(=O)N[C@H]1CCCNC1 [AZD7762] (partner 0.2 µM)
The method in brief: as §1

Compound in assay [4]: C[C@]1(O)C[C@@H](c2nc(-c3ccc4ccc(-c5ccccc5)nc4c3)c3c(N)nccn32)C1 [Linsitinib] + CC1(C)CCC(c2ccc(Cl)cc2)=C(CN2CCN(c3ccc(C(=O)NS(=O)(=O)c4ccc(N[C@H](CCN5CCOCC5)CSc5ccccc5)c(S(=O)(=O)C(F)(F)F)c4)cc3)CC2)C1 [Navitoclax] (partner 0.5 µM)
The method in brief: as §1

In the case of EKVX, the relative viability in assay [1] (first compound 0.001 µM) came to 0.456; in assay [1] (first compound 0.01 µM), 0.409; in assay [1] (first compound 0.03162 µM) it was 0.463; in assay [1] (first compound 0.1 µM), 0.295; in assay [2] (first compound 0.001 µM), 0.741; in assay [2] (first compound 0.003162 µM) it was 0.78. Moreover, the relative viability in assay [2] (first compound 0.01 µM) came to 0.693; in assay [2] (first compound 0.03162 µM), 0.623; in assay [2] (first compound 0.1 µM) it was 0.561; in assay [3] (first compound 0.001 µM), 0.777; in assay [3] (first compound 0.01 µM), 0.767; in assay [3] (first compound 0.03162 µM), 0.464. Also, the relative viability amounted to 0.303 in assay [3] (first compound 0.1 µM); 0.967 in assay [4] (first compound 0.01 µM); 0.637 in assay [4] (first compound 0.03162 µM); 0.989 in assay [4] (first compound 0.1 µM); 0.814 in assay [4] (first compound 0.3162 µM); 0.854 in assay [4] (first compound 1 µM).
For the cell line NCI-H1993, the relative viability in assay [1] (first compound 0.001 µM) is 0.566; in assay [1] (first compound 0.003162 µM), 0.404; in assay [1] (first compound 0.01 µM) it was 0.66; in assay [1] (first compound 0.03162 µM), 0.673; in assay [1] (first compound 0.1 µM), 0.487; in assay [2] (first compound 0.001 µM) it was 0.984. For the same cell line, the relative viability in assay [2] (first compound 0.003162 µM) stood at 0.738; in assay [2] (first compound 0.01 µM), 0.74; in assay [2] (first compound 0.03162 µM) it was 0.515; in assay [2] (first compound 0.1 µM), 0.438; in assay [3] (first compound 0.001 µM), 0.918; in assay [3] (first compound 0.003162 µM), 0.821. Also, the relative viability in assay [3] (first compound 0.01 µM) came to 0.636; in assay [3] (first compound 0.03162 µM) it was 0.646; in assay [3] (first compound 0.1 µM), 0.508; in assay [4] (first compound 0.01 µM) it was 0.937; in assay [4] (first compound 0.03162 µM), 0.902; in assay [4] (first compound 0.1 µM), 0.839. In addition, the relative viability in assay [4] (first compound 0.3162 µM) was 1.01; in assay [4] (first compound 1 µM), 0.6.
Consider NCI-H23, for which the relative viability in assay [1] (first compound 0.001 µM) is 0.457; in assay [1] (first compound 0.003162 µM) it was 0.529; in assay [1] (first compound 0.01 µM), 0.629; in assay [1] (first compound 0.03162 µM), 0.372; in assay [1] (first compound 0.1 µM), 0.187; in assay [2] (first compound 0.001 µM), 0.542. Further, the relative viability in assay [2] (first compound 0.003162 µM) was found to be 0.619; in assay [2] (first compound 0.01 µM), 0.647; in assay [2] (first compound 0.03162 µM), 0.419; in assay [2] (first compound 0.1 µM), 0.21; in assay [3] (first compound 0.001 µM), 0.202; in assay [3] (first compound 0.003162 µM), 0.254. Also, the relative viability in assay [3] (first compound 0.01 µM) stood at 0.274; in assay [3] (first compound 0.03162 µM) it was 0.184; in assay [3] (first compound 0.1 µM), 0.157; in assay [4] (first compound 0.01 µM), 0.811; in assay [4] (first compound 0.03162 µM), 0.854; in assay [4] (first compound 0.1 µM), 0.761. The relative viability in assay [4] (first compound 0.3162 µM) is 0.581; in assay [4] (first compound 1 µM), 0.652.
For the cell line HCC-827, the relative viability was determined as 0.496 in assay [1] (first compound 0.001 µM); 0.49 in assay [1] (first compound 0.003162 µM); 0.58 in assay [1] (first compound 0.01 µM); 0.543 in assay [1] (first compound 0.03162 µM); 0.477 in assay [1] (first compound 0.1 µM); 0.827 in assay [2] (first compound 0.001 µM). Further, the relative viability was determined as 0.999 in assay [2] (first compound 0.003162 µM); 0.861 in assay [2] (first compound 0.01 µM); 0.649 in assay [2] (first compound 0.03162 µM); 0.696 in assay [2] (first compound 0.1 µM); 0.229 in assay [3] (first compound 0.001 µM); 0.21 in assay [3] (first compound 0.003162 µM). Also, the relative viability was 0.146 in assay [3] (first compound 0.01 µM); 0.198 in assay [3] (first compound 0.03162 µM); 0.197 in assay [3] (first compound 0.1 µM); 1 in assay [4] (first compound 0.01 µM); 1.04 in assay [4] (first compound 0.03162 µM); 1.01 in assay [4] (first compound 0.1 µM). Also, the relative viability in assay [4] (first compound 1 µM) is 0.974.
